Measurements as given in patent publication US10695409B2, “Universal cancer peptides derived from telomerase” (INVECTYS, priority 2012, dated 2020).

Experiments:
CD4 T cells [1] = assay: Ex vivo IFN-γ ELISPOT of CD8 depleted spleen lymphocytes from TERT DNA-immunized mice; assay type: in vivo, A2/DR1 mice; details: mice immunized with DNA encoding TERT
Protocol: (5A-5B), A2/DR1 mice (n=8) were immunized twice with a DNA encoding TERT.
(5B), CD8 depleted spleen lymphocytes from DNA-immunized mice were assayed in ex vivo IFN-γ ELISPOT. Columns mean of triplicate from 4 mice; bars, SD.
To study the processing of UCP, A2/DR1 mice were immunized with a pTrip-TERT DNA (100 μg) at days 0 and 14 as previously reported (Adotevi et al, 2010). In some experiment CD4 T cells were depleted with anti-CD4 mAb treatment (clone GK1.5) prior DNA immunization. For UCP immunization, mice were injected with 100 μg of each UCP emulsified in incomplete Freund adjuvant (IFA, Sigma-Aldrich, France). In some experiments, 50 μg of pY988 peptide was co-injected with 100 μg of each UCP in IFA. All peptide vaccinations were done subcutaneously (s.c) at the right abdominal flank. Eight to ten week-old mice were bred and maintained in our animal facilities. All experiments were done according to the good laboratory practices defined by animal experimentation rules in France.
Ex vivo pentamer staining was performed as previously described (Adotevi et al, 2010; Adotevi et al, 2006). Cells were stained with PE-conjugated pY988 and pY572 HLA-A2.1 pentamer (ProImmune, UK). After cell staining, samples were analyzed by flow cytometry on a FACS Canto II (BD Biosciences, France) and using Diva software. […]
The inventors and others have previously reported that the use of humanized HLA transgenic mice models to screen for human tumor antigens represents a potent alternative to optimize “reverse immunology” approaches for epitope identification (Adotevi et al, 2006; Osen et al, 2010). […] To assess whether UCPs can be endogenously processed from the TERT protein, the inventors performed immunizations with a plasmid DNA encoding the full length TERT sequence and the UCP-specific CD4 splenocytes were monitored by a five-day 3H-thymidine incorporation assay. […] To this end, freshly isolated CD4 T cells from UCP-vaccinated mice were cultured in the presence of syngenic iDC pulsed or not with UCP and cytokines production was measured.

CD4 T cells [2] = assay: Avidity of UCP-specific CD4 T cells from UCP-immunized mice, IFN-γ ELISPOT; assay type: in vivo, A2/DR1 mice; details: vaccinated once, ~1 μg peptide
Protocol: (5C-5D), Mice (3-4/group) were immunized once with each UCP in IFA.
(5D), Isolated CD4 T cells were cultured ex vivo with increasing concentrations of peptide as indicated. IFN-γ production was measured by ELISPOT. Curves, mean responses from 3 mice, bars, SD.
(5E), Mice were vaccinated once with low dose of UCP as indicated. UCP-specific T cell responses were evaluated in spleen by ex vivo IFN-γ ELISPOT.
(§1) To study the processing of UCP, A2/DR1 mice were immunized with a pTrip-TERT DNA (100 μg) at days 0 and 14 as previously reported (Adotevi et al, 2010). In some experiment CD4 T cells were depleted with anti-CD4 mAb treatment (clone GK1.5) prior DNA immunization. For UCP immunization, mice were injected with 100 μg of each UCP emulsified in incomplete Freund adjuvant (IFA, Sigma-Aldrich, France). In some experiments, 50 μg of pY988 peptide was co-injected with 100 μg of each UCP in IFA. […]
(§2) Ex vivo pentamer staining was performed as previously described (Adotevi et al, 2010; Adotevi et al, 2006). […] After cell staining, samples were analyzed by flow cytometry on a FACS Canto II (BD Biosciences, France) and using Diva software. […]
Next, to assess the avidity of UCP-specific CD4 T cell, freshly purified CD4 T cells from UCP-immunized mice were cultured in the presence of increasing concentrations of peptide and the number of specific IFN-γ producing CD4 T cells was measured by ELISPOT. […]

[3] = system: UCP-specific CD4 T cell clones; assay: TNF secretion of UCP-specific CD4 T cell clones from cancer patient, flow cytometry; assay type: cell-based, human; details: CD4 T cell clones with cognate peptide, 5 h, Brefeldin A; read-out: peptide concentration at half-maximal TNF secretion
Protocol: T cell clones were obtained by limiting dilution of cancer patients T cell lines stimulated one time with the pool of UCPs. (2A and 2C) Percentage of TNF-producing T cells and of T cell clones isolated from patients GE001 in response to 10 μM of the relevant UCP; 10^5 T cells were incubated for 5 h in the presence of Brefeldin A, stained with CD4 antibody, fixed, and stained with anti-TNF antibody in a permeabilization buffer; 10^4 T cells were then analyzed in flow cytometry. (2B and 2D) Reactivity of the CD4 T cell clones in response to relevant UCP. CD4 T cell clones were culture with a range of the indicated peptide concentration. TNF secretion was assessed 5 h in the presence of Brefeldin A, by flow cytometry. (2E) Detection of cytokines produced by GE001.36 T cell clone in response to 10 μM of UCP4 using human ten-plex cytokines assay. […]
For intracytoplasmic cytokine staining, after a 5-h stimulation period with or without 10 μM peptide, T cells were labeled with anti-CD4 (BD Bioscience, USA) and anti-TNF-α (ebioscience, USA) using Cytofix/Cytoperm KIT (BD Bioscience). […] Samples were acquired on a FACS Canto II (BD Biosciences) and analyzed with the DIVA software. […]

[4] = system: immature bone marrow-derived DCs; assay: In vitro DC-CD4 T cell co-culture; assay type: cell-based, A2/DR1 mice; details: CD4 T cells from UCP2/IFA versus IFA injected mice
Protocol: 8B, Schema of the in vitro DC-CD4 T cell co-culture.
8C, IFN-γ and GM-CSF production measured by ELISA in the supernatant.
8D, Expression of CD86 and HLA-DR on CD11c+ DC.
8E, Interleukin 12 production measured in supernatant by ELISA.
Spleen or lymph nodes CD11c+ DCs from peptide-immunized mice were directly analyzed for co-stimulatory receptor expression. In some experiments, immature bone marrow-derived DCs (iDC) from A2/DR1 mice were cultured 15-h with CD4 T cells from mice immunized with UCP or IFA alone and then stained for cell surface expression of co-stimulatory receptors and cytokines production.
The induction of dendritic cell activation represents one major helper mechanism used by CD4+ Th1 cells to sustain antigen presentation and provide costimulatory signals to the CTLs. This is referred as the “ménage à trois” model (Ridge et al, 1998). To test this mechanism, the inventors have analyzed the expression of co-stimulating receptors on DCs from mice immunized with the mix of pY988+/−UCP2. […] In a second set of experiments, isolated CD4 T cells from UCP2/IFA or IFA injected mice were co-cultured with syngenic iDCs as shown in FIG. 8B. As expected, UCP2-specific CD4 T cells produced significant amounts of Th1 cytokines such as IFN-γ and GM-CSF (FIG. 8C).

[5] = system: blood lymphocytes from NSCLC patients and healthy volunteers; assay: Spontaneous UCP-specific T cell responses, IFN-γ ELISPOT after one week stimulation; assay type: cell-based, human; details: frequency of T cell responses
HLA-DR molecules = assay: HLA-DR binding assay, competitive ELISA, summary over the alleles tested; set-up: species or system human; details: RA intermediate 100-500, low <100
Protocol: (§3) Synthetic peptides (>80% purity) were purchased from Activotec (Cambridge, United Kingdom). The binding capacity to HLA-DR molecules was assessed by competitive ELISA as previously reported (Wang et al).
(§4) To predict the existence of CD4 epitopes within the amino acid sequence of TERT capable of binding to multiple HLA-DR molecules, the inventors have combined results from three algorithms Syfpeithi, NetMHCpan-2.1 and NetMHC2.2. They have selected four 15-mers peptide sequences referred as UCP1 to UCP4 that scored high in the probability scale for their binding capacity to the commonly found human HLA-DR alleles (Table 1). […] Data are expressed as relative activity RA (ratio of the IC50 of UCPs to the IC50 of the reference peptide) and are the means of three experiments. Good binders have a […] and weak binder are […].
Thus, according to phenotypic frequencies of the 10 prevalent HLA-DR antigens, these peptides could cover more than 90% of population (Wang et al).

HLA-DR DR3 = assay: HLA-DR binding assay, competitive ELISA; set-up: species or system human; details: means of three experiments
Protocol: as §3, §4

HLA-DR DR11 = assay: HLA-DR binding assay, competitive ELISA; set-up: species or system human; details: means of three experiments
[6] = system: pY988-specific CD8 T cells; assay: Co-immunization pY988 plus UCP: pY988-specific CTL response by pentamer staining and IFN-γ ELISPOT; assay type: in vivo, A2/DR1 mice; details: pY988 plus UCP in IFA versus pY988/IFA alone, day 10, spleen
Source text: Mice (3/group) were immunized either with pY988 plus each UCP in IFA or with pY988/IFA alone and the immune responses were monitored ten days later in the spleen. 6A, freshly isolated CD8 T cells were stained with TERT pY988/A2+ pentamer. Representative flow cytometry dot plots (upper panel) and mean percentages of pY988/A2+ CD8 T cells (lower panel) are shown.
6B, Ex vivo detection of anti-pY988 CD8 T cells by IFN-γ ELISPOT.
as §1, §2
CD4 T cell helper functions are thought to be important for the generation of potent and sustained CTL responses (Shedlock et al, 2003). […] The pY988-specific CTL response was measured ex vivo by pentamer staining and ELISPOT assays. […]

HLA-DR DR13 = assay: HLA-DR binding assay, competitive ELISA; set-up: species or system human; details: means of three experiments
Protocol: as §3, §4

HLA-DR DRB4 = HLA-DR DRB4 (Homo sapiens, UniProt P01903+P13762); assay: HLA-DR binding assay, competitive ELISA; details: means of three experiments
Protocol: as §3, §4

Sequence | specific CD4 T cell responses detected (CD4 T cells [1]) | IFN-γ+ CD4 T cells after low dose vaccination (CD4 T cells [2]) | EC50 [3] [µM] | DC activation and interleukin-12 production in presence of UCP2-specific CD4 T cells [4] | CD4 T cell responses to individual UCPs [5] | capacity to bind HLA-DR molecules (HLA-DR molecules) | Relative affinity RA (ratio of the IC50 of UCPs to the IC50 of the reference peptide) (HLA-DR DR3) | Relative affinity RA (ratio of the IC50 of UCPs to the IC50 of the reference peptide) (HLA-DR DR11) | frequency of pY988/A2 pentamer+ CD8 T cells [6] | Relative affinity RA (ratio of the IC50 of UCPs to the IC50 of the reference peptide) (HLA-DR DR13) | Relative affinity RA (ratio of the IC50 of UCPs to the IC50 of the reference peptide) (HLA-DR DRB4)
GTAFVQMPAHGLFPW [UCP3] | in all immunized mice | stimulated potent IFN-γ+ CD4 T cells |  |  |  |  |  |  |  |  | 
KSVWSKLQSIGIRQH [UCP2, universal cancer peptide derived from TERT, 15-mer] | in all immunized mice | stimulated potent IFN-γ+ CD4 T cells | ~4 | induced potent DCs activation | more immunogenic | able to bind every HLA-DR molecules tested |  |  |  |  | 
PAAFRALVAQCLVCV (listed as Homo sapiens) [UCP1, universal cancer peptide derived from TERT, 15-mer] |  |  |  |  |  | able to bind every HLA-DR molecules tested | 0.4 | 25 | little impact |  | 
SLCYSILKAKNAGMS [UCP4, universal cancer peptide derived from TERT, 15-mer] | in all immunized mice |  | < 0.1 |  | more immunogenic |  | >500 | 0,3 |  | >500 | >500
